HELM strings list units from the 5' end as sugar, base in round brackets, then linkage (d deoxyribose, r ribose, m 2'-O-methyl, p phosphodiester). Strings are as the collection lists them; they lack the last nucleoside at the 3' end of the tested compound. [moe] = 2'-O-(2-methoxyethyl) (MOE); [sp] = phosphorothioate linkage; [m5C] = 5-methylcytosine

The data set concerns the target GFAP. Put plainly: mouse, dose not given. The conditions noted are these: ASO.
With “RNA1{[moe](G)[sp].[moe](A)p.[moe]([m5C])p.[moe]([m5C])p.[moe](T)[sp].d(G)[sp].d(T)[sp].d(G)[sp].d(A)[sp].d([m5C])[sp].d(T)[sp].d(A)[sp].d(T)[sp].d([m5C])[sp].d(T)[sp].[moe](A)p.[moe](G)p.[moe](G)[sp].[moe](A)}$$$$ (last 3' nucleoside missing)”, the 3 h FOB score amounted to 3 score 0-7.

For “RNA1{[moe](G)[sp].[moe](G)p.[moe](A)p.[moe](G)p.[moe](A)[sp].d(A)[sp].d(G)[sp].d(G)[sp].d(T)[sp].d([m5C])[sp].d(T)[sp].d(G)[sp].d([m5C])[sp].d(A)[sp].d([m5C])[sp].[moe](G)p.[moe](G)p.[moe](G)[sp].[moe](A)}$$$$ (last 3' nucleoside missing)”, the 3 h FOB score amounted to 7 score 0-7.

In turn, “RNA1{[moe](G)[sp].[moe](G)p.[moe](A)p.[moe](G)p.[moe](G)[sp].d(G)[sp].d(T)[sp].d(G)[sp].d(A)[sp].d([m5C])[sp].d([m5C])[sp].d([m5C])[sp].d(A)[sp].d(A)[sp].d(G)[sp].[moe](T)p.[moe]([m5C])p.[moe]([m5C])[sp].[moe](T)}$$$$ (last 3' nucleoside missing)” had a 3 h FOB score of 4 score 0-7.

In turn, “RNA1{[moe](G)[sp].[moe](G)p.[moe](A)p.[moe](G)p.[moe](G)[sp].d(G)[sp].d([m5C])[sp].d(G)[sp].d(A)[sp].d(T)[sp].d(G)[sp].d(T)[sp].d(A)[sp].d(G)[sp].d(T)[sp].[moe](A)p.[moe](G)p.[moe](G)[sp].[moe](T)}$$$$ (last 3' nucleoside missing)” displayed a 3 h FOB score of 1 score 0-7.

The substance “RNA1{[moe](G)[sp].[moe](G)p.[moe](A)p.[moe](T)p.[moe]([m5C])[sp].d(T)[sp].d([m5C])[sp].d([m5C])[sp].d(T)[sp].d([m5C])[sp].d([m5C])[sp].d(T)[sp].d([m5C])[sp].d([m5C])[sp].d(A)[sp].[moe](G)p.[moe]([m5C])p.[moe](G)[sp].[moe](A)}$$$$ (last 3' nucleoside missing)” displayed a 3 h FOB score of 0 score 0-7.

“RNA1{[moe](G)[sp].[moe](G)p.[moe](G)p.[moe](T)p.[moe](G)[sp].d(A)[sp].d(G)[sp].d(T)[sp].d(T)[sp].d(T)[sp].d([m5C])[sp].d(T)[sp].d(T)[sp].d(G)[sp].d(T)[sp].[moe](T)p.[moe](A)p.[moe](G)[sp].[moe](T)}$$$$ (last 3' nucleoside missing)” gave a 3 h FOB score of 6 score 0-7.

Consider “RNA1{[moe](G)[sp].[moe](G)p.[moe](G)p.[moe](T)p.[moe](G)[sp].d(A)[sp].d([m5C])[sp].d([m5C])[sp].d([m5C])[sp].d(A)[sp].d(A)[sp].d(G)[sp].d(T)[sp].d([m5C])[sp].d([m5C])[sp].[moe](T)p.[moe](T)p.[moe](G)[sp].[moe](G)}$$$$ (last 3' nucleoside missing)”, for which the 3 h FOB score stood at 5 score 0-7.

For the substance “RNA1{[moe](G)[sp].[moe](G)p.[moe](G)p.[moe]([m5C])p.[moe](A)[sp].d(T)[sp].d(G)[sp].d(A)[sp].d(G)[sp].d([m5C])[sp].d([m5C])[sp].d(A)[sp].d(T)[sp].d([m5C])[sp].d([m5C])[sp].[moe](T)p.[moe]([m5C])p.[moe](T)[sp].[moe]([m5C])}$$$$ (last 3' nucleoside missing)”, the 3 h FOB score was found to be 3 score 0-7.

As to “RNA1{[moe](G)[sp].[moe](G)p.[moe](G)p.[moe]([m5C])p.[moe](A)[sp].d([m5C])[sp].d(T)[sp].d(A)[sp].d([m5C])[sp].d([m5C])[sp].d(T)[sp].d(A)[sp].d(G)[sp].d(A)[sp].d(A)[sp].[moe](T)p.[moe](A)p.[moe]([m5C])[sp].[moe](T)}$$$$ (last 3' nucleoside missing)”, the 3 h FOB score was 5 score 0-7.

For “RNA1{[moe](G)[sp].[moe](G)p.[moe](T)p.[moe](A)p.[moe](A)[sp].d(G)[sp].d([m5C])[sp].d(T)[sp].d(G)[sp].d([m5C])[sp].d(T)[sp].d(G)[sp].d(G)[sp].d(A)[sp].d(G)[sp].[moe](T)p.[moe](A)p.[moe](A)[sp].[moe](G)}$$$$ (last 3' nucleoside missing)”, the 3 h FOB score was determined as 7 score 0-7.

Take “RNA1{[moe](G)[sp].[moe](G)p.[moe](T)p.[moe](A)p.[moe](T)[sp].d(G)[sp].d(A)[sp].d(T)[sp].d(A)[sp].d(G)[sp].d(G)[sp].d([m5C])[sp].d(T)[sp].d([m5C])[sp].d(T)[sp].[moe](G)p.[moe](G)p.[moe]([m5C])[sp].[moe](T)}$$$$ (last 3' nucleoside missing)”: the 3 h FOB score amounted to 5 score 0-7.

The substance “RNA1{[moe](G)[sp].[moe](G)p.[moe](T)p.[moe](G)p.[moe](A)[sp].d(G)[sp].d(T)[sp].d(T)[sp].d(T)[sp].d([m5C])[sp].d(T)[sp].d(T)[sp].d(G)[sp].d(T)[sp].d(T)[sp].[moe](A)p.[moe](G)p.[moe](T)[sp].[moe](T)}$$$$ (last 3' nucleoside missing)” registered a 3 h FOB score of 7 score 0-7.

For “RNA1{[moe](G)[sp].[moe](G)p.[moe](T)p.[moe](G)p.[moe](G)[sp].d(G)[sp].d(T)[sp].d(G)[sp].d([m5C])[sp].d([m5C])[sp].d(G)[sp].d(T)[sp].d([m5C])[sp].d(T)[sp].d(G)[sp].[moe](G)p.[moe]([m5C])p.[moe](A)[sp].[moe](G)}$$$$ (last 3' nucleoside missing)”, the 3 h FOB score was found to be 7 score 0-7.

As to “RNA1{[moe](G)[sp].[moe](G)p.[moe](T)p.[moe](G)p.[moe]([m5C])[sp].d(T)[sp].d(T)[sp].d(T)[sp].d(T)[sp].d(G)[sp].d([m5C])[sp].d([m5C])[sp].d([m5C])[sp].d([m5C])[sp].d([m5C])[sp].[moe](T)p.[moe]([m5C])p.[moe](G)[sp].[moe](A)}$$$$ (last 3' nucleoside missing)”, the 3 h FOB score was found to be 1 score 0-7.

Take “RNA1{[moe](G)[sp].[moe](G)p.[moe](T)p.[moe](G)p.[moe]([m5C])p.d(T)[sp].d(T)[sp].d(T)[sp].d(T)[sp].d(G)[sp].d([m5C])[sp].d([m5C])[sp].d([m5C])[sp].d([m5C])[sp].d([m5C])[sp].[moe](T)p.[moe](G)p.[moe](T)[sp].[moe](A)}$$$$ (last 3' nucleoside missing)”: the 3 h FOB score was 3 score 0-7.

The substance “RNA1{[moe](G)[sp].[moe](G)p.[moe](T)p.[moe](T)p.[moe](A)[sp].d(G)[sp].d([m5C])[sp].d([m5C])[sp].d(T)[sp].d(T)[sp].d(T)[sp].d([m5C])[sp].d(T)[sp].d(G)[sp].d(A)[sp].[moe](T)p.[moe](G)p.[moe]([m5C])[sp].[moe](T)}$$$$ (last 3' nucleoside missing)” gave a 3 h FOB score of 3 score 0-7.

“RNA1{[moe](G)[sp].[moe](G)p.[moe](T)p.[moe](T)p.[moe](G)[sp].d(G)[sp].d(T)[sp].d(T)[sp].d(T)[sp].d([m5C])[sp].d(A)[sp].d(T)[sp].d([m5C])[sp].d([m5C])[sp].d(T)[sp].[moe](G)p.[moe](G)p.[moe](A)[sp].[moe](G)}$$$$ (last 3' nucleoside missing)” registered a 3 h FOB score of 3 score 0-7.

The substance “RNA1{[moe](G)[sp].[moe](G)p.[moe](T)p.[moe]([m5C])p.[moe]([m5C])[sp].d(T)[sp].d(A)[sp].d(A)[sp].d(A)[sp].d(T)[sp].d(A)[sp].d(T)[sp].d(T)[sp].d([m5C])[sp].d(T)[sp].[moe](A)p.[moe](G)p.[moe](T)[sp].[moe]([m5C])}$$$$ (last 3' nucleoside missing)” showed a 3 h FOB score of 1 score 0-7.

Take “RNA1{[moe](G)[sp].[moe](G)p.[moe](T)p.[moe]([m5C])p.[moe]([m5C])p.d(T)[sp].d(A)[sp].d(A)[sp].d(A)[sp].d(T)[sp].d(A)[sp].d(T)[sp].d(T)[sp].d([m5C])[sp].d(T)[sp].[moe](A)p.[moe](G)p.[moe](T)[sp].[moe]([m5C])}$$$$ (last 3' nucleoside missing)”: the 3 h FOB score worked out at 1 score 0-7.

For “RNA1{[moe](G)[sp].[moe](G)p.[moe]([m5C])p.[moe](A)p.[moe](A)[sp].d([m5C])[sp].d(A)[sp].d(G)[sp].d(T)[sp].d(T)[sp].d(T)[sp].d([m5C])[sp].d([m5C])[sp].d(A)[sp].d(T)[sp].[moe](A)p.[moe](A)p.[moe]([m5C])[sp].[moe](A)}$$$$ (last 3' nucleoside missing)”, the 3 h FOB score was found to be 0 score 0-7.

In the case of “RNA1{[moe](G)[sp].[moe](G)p.[moe]([m5C])p.[moe](A)p.[moe](G)[sp].d(T)[sp].d(A)[sp].d(T)[sp].d(T)[sp].d(A)[sp].d([m5C])[sp].d([m5C])[sp].d(T)[sp].[moe]([m5C])p.[moe](T)p.[moe](A)[sp].[moe]([m5C])}$$$$ (last 3' nucleoside missing)”, the 3 h FOB score came out at 0 score 0-7.

“RNA1{[moe](G)[sp].[moe](G)p.[moe]([m5C])p.[moe](A)p.[moe](G)[sp].d(T)[sp].d(A)[sp].d(T)[sp].d(T)[sp].d(A)[sp].d([m5C])[sp].d([m5C])[sp].d(T)[sp].d([m5C])[sp].d(T)[sp].[moe](A)p.[moe]([m5C])p.[moe](T)[sp].[moe](A)}$$$$ (last 3' nucleoside missing)”: the 3 h FOB score is 3 score 0-7.

Consider “RNA1{[moe](G)[sp].[moe](G)p.[moe]([m5C])p.[moe](A)p.[moe](G)p.[moe](T)p.d(A)[sp].d(T)[sp].d(T)[sp].d(A)[sp].d([m5C])[sp].d([m5C])[sp].d(T)[sp].d([m5C])[sp].d(T)[sp].d(A)[sp].[moe]([m5C])p.[moe](T)[sp].[moe](A)}$$$$ (last 3' nucleoside missing)”, for which the 3 h FOB score stood at 3 score 0-7.

Substance “RNA1{[moe](G)[sp].[moe](G)p.[moe]([m5C])p.[moe](A)p.[moe](G)p.d(T)[sp].d(A)[sp].d(T)[sp].d(T)[sp].d(A)[sp].d([m5C])[sp].d([m5C])[sp].d(T)[sp].d([m5C])[sp].d(T)[sp].[moe](A)p.[moe]([m5C])p.[moe](T)[sp].[moe](A)}$$$$ (last 3' nucleoside missing)” registered a 3 h FOB score of 3 score 0-7.

In the case of “RNA1{[moe](G)[sp].[moe](G)p.[moe]([m5C])p.[moe](A)p.[moe]([m5C])[sp].d(A)[sp].d(G)[sp].d(T)[sp].d(T)[sp].d([m5C])[sp].d([m5C])[sp].d([m5C])[sp].d(A)[sp].d(G)[sp].d(A)[sp].[moe](T)p.[moe](A)p.[moe]([m5C])[sp].[moe](T)}$$$$ (last 3' nucleoside missing)”, the 3 h FOB score was determined as 5 score 0-7.

The values above are taken from the OligoGym collection.
